Test results as given in ChEMBL document CHEMBL1136853, “Synthesis and SAR of vinca alkaloid analogues” (Bioorg Med Chem Lett, 2009).

Key:
HeLa = test: Cytotoxicity against human HeLa cells; type: functional
MCF7 = test: Cytotoxicity against human MCF7 cells; type: functional

Row | Structure (SMILES) | GI50 (HeLa) | GI50 (MCF7)
1 | CC[C@]1(O)C[C@H]2CN(CCc3c([nH]c4ccc(SC)cc34)[C@@](C(=O)OC)(c3cc4c(cc3OC)N(C=O)[C@H]3[C@@](O)(C(=O)OC)[C@H](OC(C)=O)[C@]5(CC)CC=CN6CC[C@]43[C@@H]65)C2)C1 | 3 nM | 3 nM
2 | CC[C@]1(O)C[C@H]2CN(CCc3c([nH]c4ccc(C)cc34)[C@@](C(=O)OC)(c3cc4c(cc3OC)N(C=O)[C@H]3[C@@](O)(C(=O)OC)[C@H](OC(C)=O)[C@]5(CC)CC=CN6CC[C@]43[C@@H]65)C2)C1 | 1 nM | 3 nM
3 | CC[C@]1(O)C[C@H]2CN(CCc3c([nH]c4ccc(-c5ccccc5)cc34)[C@@](C(=O)OC)(c3cc4c(cc3OC)N(C=O)[C@H]3[C@@](O)(C(=O)OC)[C@H](OC(C)=O)[C@]5(CC)CC=CN6CC[C@]43[C@@H]65)C2)C1 | 50 nM | 35 nM
4 | C#Cc1ccc2[nH]c3c(c2c1)CN1CC(CC)=C[C@@H](C1)C[C@]3(C(=O)OC)c1cc2c(cc1OC)N(C)[C@H]1[C@@](O)(C(=O)OC)[C@H](OC(C)=O)[C@]3(CC)CC=CN4CC[C@]21[C@@H]43 | 0.4 nM | 5 nM
5 | CC[C@]1(O)C[C@H]2CN(CCc3c([nH]c4ccc(C#N)cc34)[C@@](C(=O)OC)(c3cc4c(cc3OC)N(C)[C@H]3[C@@](O)(C(=O)OC)[C@H](OC(C)=O)[C@]5(CC)CC=CN6CC[C@]43[C@@H]65)C2)C1 | 3 nM | 3 nM
6 | CCSc1ccc2[nH]c3c(c2c1)CN1CC(CC)=C[C@@H](C1)C[C@]3(C(=O)OC)c1cc2c(cc1OC)N(C)[C@H]1[C@@](O)(C(=O)OC)[C@H](OC(C)=O)[C@]3(CC)CC=CN4CC[C@]21[C@@H]43 | 5 nM | 20 nM
7 | CCSc1ccc2[nH]c3c(c2c1)CCN1C[C@H](C[C@@](O)(CC)C1)C[C@]3(C(=O)OC)c1cc2c(cc1OC)N(C)[C@H]1[C@@](O)(C(=O)OC)[C@H](OC(C)=O)[C@]3(CC)CC=CN4CC[C@]21[C@@H]43 | 2 nM | 3 nM
8 | CC[C@]1(O)C[C@H]2CN(CCc3c([nH]c4ccc(-c5ccccc5)cc34)[C@@](C(=O)OC)(c3cc4c(cc3OC)N(C)[C@H]3[C@@](O)(C(=O)OC)[C@H](OC(C)=O)[C@]5(CC)CC=CN6CC[C@]43[C@@H]65)C2)C1 | 400 nM | 300 nM
9 | C#Cc1ccc2[nH]c3c(c2c1)CCN1C[C@H](C[C@@](O)(CC)C1)C[C@]3(C(=O)OC)c1cc2c(cc1OC)N(C)[C@H]1[C@@](O)(C(=O)OC)[C@H](OC(C)=O)[C@]3(CC)CC=CN4CC[C@]21[C@@H]43 | 20 nM | 5 nM
10 | CC[C@]1(O)C[C@H]2CN(CCc3c([nH]c4ccc(C(=O)OC)cc34)[C@@](C(=O)OC)(c3cc4c(cc3OC)N(C)[C@H]3[C@@](O)(C(=O)OC)[C@H](OC(C)=O)[C@]5(CC)CC=CN6CC[C@]43[C@@H]65)C2)C1 | 20 nM | 30 nM
11 | CCC1=C[C@H]2CN(C1)Cc1c([nH]c3ccc(C#N)cc13)[C@@](C(=O)OC)(c1cc3c(cc1OC)N(C)[C@H]1[C@@](O)(C(=O)OC)[C@H](OC(C)=O)[C@]4(CC)CC=CN5CC[C@]31[C@@H]54)C2 | 1 nM | 6 nM
12 | CC[C@]1(O)C[C@H]2CN(CCc3c([nH]c4ccc(C#N)cc34)[C@@](C(=O)OC)(c3cc4c(cc3OC)N(C=O)[C@H]3[C@@](O)(C(=O)OC)[C@H](OC(C)=O)[C@]5(CC)CC=CN6CC[C@]43[C@@H]65)C2)C1 | 10 nM | 4 nM
13 | CC[C@]1(O)C[C@H]2CN(CCc3c([nH]c4ccc(N5CCCCC5)cc34)[C@@](C(=O)OC)(c3cc4c(cc3OC)N(C)[C@H]3[C@@](O)(C(=O)OC)[C@H](OC(C)=O)[C@]5(CC)CC=CN6CC[C@]43[C@@H]65)C2)C1 | 20 nM | 30 nM
14 | CC[C@]1(O)C[C@H]2CN(CCc3c([nH]c4ccc(C(=O)O)cc34)[C@@](C(=O)OC)(c3cc4c(cc3OC)N(C)[C@H]3[C@@](O)(C(=O)OC)[C@H](OC(C)=O)[C@]5(CC)CC=CN6CC[C@]43[C@@H]65)C2)C1 | > 1000 nM | > 1000 nM
15 | CCC1=C[C@H]2CN(C1)Cc1c([nH]c3ccc(-c4cccc(F)c4)cc13)[C@@](C(=O)OC)(c1cc3c(cc1OC)N(C)[C@H]1[C@@](O)(C(=O)OC)[C@H](OC(C)=O)[C@]4(CC)CC=CN5CC[C@]31[C@@H]54)C2 | > 1000 nM | > 1000 nM
16 | CC[C@]1(O)C[C@H]2CN(CCc3c([nH]c4ccc(C(C)=O)cc34)[C@@](C(=O)OC)(c3cc4c(cc3OC)N(C)[C@H]3[C@@](O)(C(=O)OC)[C@H](OC(C)=O)[C@]5(CC)CC=CN6CC[C@]43[C@@H]65)C2)C1 | 200 nM | 100 nM
17 | CC[C@]1(O)C[C@H]2CN(CCc3c([nH]c4ccc(N)cc34)[C@@](C(=O)OC)(c3cc4c(cc3OC)N(C)[C@H]3[C@@](O)(C(=O)OC)[C@H](OC(C)=O)[C@]5(CC)CC=CN6CC[C@]43[C@@H]65)C2)C1 | 200 nM | 200 nM
18 | CCC1=C[C@H]2CN(C1)Cc1c([nH]c3ccc(C(C)=O)cc13)[C@@](C(=O)OC)(c1cc3c(cc1OC)N(C)[C@H]1[C@@](O)(C(=O)OC)[C@H](OC(C)=O)[C@]4(CC)CC=CN5CC[C@]31[C@@H]54)C2 | 4 nM | 20 nM
19 | CC[C@]1(O)C[C@H]2CN(CCc3c([nH]c4ccc(-c5cccc(F)c5)cc34)[C@@](C(=O)OC)(c3cc4c(cc3OC)N(C)[C@H]3[C@@](O)(C(=O)OC)[C@H](OC(C)=O)[C@]5(CC)CC=CN6CC[C@]43[C@@H]65)C2)C1 | 300 nM | 300 nM
20 | CC[C@]1(O)C[C@H]2CN(CCc3c([nH]c4ccc(SCC(=O)O)cc34)[C@@](C(=O)OC)(c3cc4c(cc3OC)N(C)[C@H]3[C@@](O)(C(=O)OC)[C@H](OC(C)=O)[C@]5(CC)CC=CN6CC[C@]43[C@@H]65)C2)C1 | 50 nM | 200 nM
21 | CC[C@]1(O)C[C@H]2CN(CCc3c([nH]c4ccc(C(N)=O)cc34)[C@@](C(=O)OC)(c3cc4c(cc3OC)N(C)[C@H]3[C@@](O)(C(=O)OC)[C@H](OC(C)=O)[C@]5(CC)CC=CN6CC[C@]43[C@@H]65)C2)C1 | > 1000 nM | > 1000 nM
22 | CCc1ccc2[nH]c3c(c2c1)CCN1C[C@H](C[C@@](O)(CC)C1)C[C@]3(C(=O)OC)c1cc2c(cc1OC)N(C)[C@H]1[C@@](O)(C(=O)OC)[C@H](OC(C)=O)[C@]3(CC)CC=CN4CC[C@]21[C@@H]43 | 0.3 nM | 0.6 nM
23 | CCc1ccc2[nH]c3c(c2c1)CCN1C[C@H](C[C@@](O)(CC)C1)C[C@]3(C(=O)OC)c1cc2c(cc1OC)N(C=O)[C@H]1[C@@](O)(C(=O)OC)[C@H](OC(C)=O)[C@]3(CC)CC=CN4CC[C@]21[C@@H]43 | 5 nM | 10 nM
24 | CCC1=C[C@H]2CN(C1)Cc1c([nH]c3ccc(-c4ccccc4)cc13)[C@@](C(=O)OC)(c1cc3c(cc1OC)N(C)[C@H]1[C@@](O)(C(=O)OC)[C@H](OC(C)=O)[C@]4(CC)CC=CN5CC[C@]31[C@@H]54)C2 | 70 nM | 300 nM
25 | CC[C@]1(O)C[C@H]2CN(CCc3c([nH]c4ccc(-c5nccs5)cc34)[C@@](C(=O)OC)(c3cc4c(cc3OC)N(C)[C@H]3[C@@](O)(C(=O)OC)[C@H](OC(C)=O)[C@]5(CC)CC=CN6CC[C@]43[C@@H]65)C2)C1 | 200 nM | 100 nM
